Laboratory results as given in ChEMBL document CHEMBL4261594, “Unexpected AChE inhibitory activity of (2E)α,β-unsaturated fatty acids” (Bioorg Med Chem Lett, 2018).

Legend:
[1] = target: T1, Acetylcholinesterase (Electrophorus electricus, UniProt O42275); assay: Inhibition of electric eel AChE using acetylthiocholine iodide as substrate preincubated for 20 mins followed by substrate addition and measured at 1 min intervals for 30 mins by Ellman's method
[2] = target: T1, Acetylcholinesterase; assay: Mixed type inhibition of electric eel AChE using acetylthiocholine iodide as substrate preincubated for 20 mins followed by substrate addition and measured at 1 min intervals for 30 mins by Cornish-Bowden plot analysis
[3] = target: T1, Acetylcholinesterase; assay: Mixed type inhibition of electric eel AChE using acetylthiocholine iodide as substrate preincubated for 20 mins followed by substrate addition and measured at 1 min intervals for 30 mins by Dixon plot analysis

T1 sequence (O42275 whole entry): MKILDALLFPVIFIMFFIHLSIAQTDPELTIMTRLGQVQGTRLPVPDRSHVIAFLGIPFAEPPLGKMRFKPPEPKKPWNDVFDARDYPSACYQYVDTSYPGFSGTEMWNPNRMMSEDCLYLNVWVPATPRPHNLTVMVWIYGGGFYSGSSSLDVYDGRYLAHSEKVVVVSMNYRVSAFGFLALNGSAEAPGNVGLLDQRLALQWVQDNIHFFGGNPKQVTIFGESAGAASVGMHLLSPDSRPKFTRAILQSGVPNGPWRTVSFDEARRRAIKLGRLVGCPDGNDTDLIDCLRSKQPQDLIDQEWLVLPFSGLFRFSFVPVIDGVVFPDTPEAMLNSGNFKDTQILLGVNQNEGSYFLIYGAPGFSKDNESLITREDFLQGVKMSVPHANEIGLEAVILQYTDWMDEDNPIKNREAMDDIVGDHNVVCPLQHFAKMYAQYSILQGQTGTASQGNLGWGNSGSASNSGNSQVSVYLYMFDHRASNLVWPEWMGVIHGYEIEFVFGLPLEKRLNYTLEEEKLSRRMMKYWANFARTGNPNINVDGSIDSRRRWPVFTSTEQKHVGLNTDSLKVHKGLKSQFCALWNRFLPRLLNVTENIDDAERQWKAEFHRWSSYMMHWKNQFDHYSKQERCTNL

## CCCCCCCCCCCCCCCCC/C=C/C(=O)O
[1]; read-out: IC50
  IC50: 5 µM
[2]
  Ki: 7.15 µM
[3]
  Ki: 1.51 µM

## CCCCCCCCCCCCCCCCCCC/C=C/C(=O)O
[1]; read-out: IC50
  IC50: 11.7 µM

## CCCCCCCCCCCCC/C=C/C(=O)O
[1]; read-out: IC50
  IC50: 7.9 µM

## CCCCCCCCCCCCCCC/C=C/C(=O)O
[1]; read-out: IC50
  IC50: 4.3 µM
[2]
  Ki: 5.51 µM
[3]
  Ki: 3.21 µM

## CCCCCCCCCCCCCCCCCCCC(=O)O [ARACHIDIC ACID]
[1]; read-out: IC50
  IC50: 12.8 µM

## CCCCCCCCCCCCCCCCCCCCCC(=O)O [BEHENIC ACID]
[1]
  IC50: Nd(Insoluble)

## CCCCCCCCCCCCCCCC(=O)O [PALMITIC ACID]
[1]; read-out: IC50
  IC50: 10.1 µM

## CCCCCCCCCCCCCCCCCC(=O)O [STEARIC ACID]
[1]; read-out: IC50
  IC50: 7.5 µM
[2]
  Ki: 3.62 µM
[3]
  Ki: 4.4 µM
